Results reported in US8395037B2, “Pharmaceutical compositions for treating/preventing motor organ diseases” (Mitsubishi Corporation, priority 2005, dated 2013).

How the values were obtained:
[1] = Lubricating effect: pendulum-type dynamic friction coefficient measurement; assay type: physicochemical; settings: for Dynamic friction coefficient: room temperature, mean of three
Description: Lubricating effect of fullerene was examined using three different solutions. 20 ml each of the solutions of (A) osteoarthritis patient-derived synovial fluid, (B) 50% polyethylene glycol solution, and (C) joint function-improving agent (hyaluronic acid formulation) were prepared, and dispensed into two tubes at 10 ml each. One 10 ml solution was mixed with fullerene (C60) to adjust the final concentration to 1.0 μM. The other 10 ml solution was used as a control solution. The dynamic friction coefficients of the respective solutions at room temperature were measured three times by a pendulum-type dynamic friction coefficient measuring apparatus (Japan Lubricating Oil Society), and the mean values were calculated. The dynamic friction coefficients were compared between the fullerene solutions and the control solutions.

[2] = tested on: osteoarthritis model animals (rabbits); assay: Osteoarthritis rabbit model, intraarticular water-solubilized fullerene 0.1 to 40.0 μM, safranin O cartilage degeneration; assay type: in vivo; settings: for Efficacy on cartilage degeneration (rabbits responding): eight-week administration
Description: Various concentrations (0.1, 1.0, 10.0, or 40.0 μM) of water-solubilized fullerene (cyclodextrin clathrate C60) was injected into the right knee joints of osteoarthritis model animals (rabbits), and solvent alone was injected into the left knee joints as controls intraarticularly once a week. On the fourth or eighth week after the start of administration, the knees were dissected and stained with safranin O, to compare the degree of cartilage degeneration of medial and lateral tibia.
As described above, the therapeutic effect of the four-week or eight-week repetitive administration with water-solubilized fullerene was confirmed. Therefore, the therapeutic effect of a single administration of water-solubilized fullerene was also examined. Immediately after the preparation of an osteoarthritis rabbit model, a single dose of water-solubilized fullerene was administered. On the eighth week, articular cartilage tissue samples were prepared, and the therapeutic effect was examined.

[3] = General condition, organ histology and blood biochemical examination during eight-week administration; assay type: in vivo, rabbit
Description: In particular, in the eight-week administration, the inhibitory effect of water-solubilized fullerene on cartilage degeneration was more remarkable in the 1.0 μM and 10.0 μM administered groups rather than the 0.1 μM administered group. […] During the eight-week test period, decrease in body weight, insufficient feeding, hematuria, or abnormal hair coat was not observed in the experimental animals.
(§1) Sequential biochemical examinations of blood and synovial fluid were also performed (pre-administration and fourth- and eighth-week post-administration of water-solubilized fullerene). The observed biochemical examination items were (A) hepatic function (GOT and GPT), renal function (urea nitrogen and creatinine), and electrolytes (Na, K, and Cl), (B) extracellular matrix-degrading enzyme production ability (MMP-1, 3, and 13), and (C) cartilage matrix-synthesizing ability (proteoglycan). The items of (A) were measured by commercially available testing equipments and items of (B) and (C) were measured by ELISA method.

MMP-3 = MMP-3 concentration in synovial fluid of osteoarthritis model knee joints (ELISA); assay type: in vivo, rabbit; settings: various concentrations, sequential measurement, versus control knees
Description: as §1

proteoglycan = assay: Proteoglycan concentration in synovial fluid of osteoarthritis model knee joints (ELISA); assay type: in vivo, rabbit; settings: sequential measurement
Description: as §1

[4] = tested on: osteoarthritis model (rabbit); assay: Comparative test of water-solubilized fullerene and hyaluronic acid formulation in osteoarthritis model; assay type: in vivo; settings: 1.0 μM, 2.0 ml/rabbit, eighth week; compared with hyaluronic acid formulation
Description: The medicinal effect of water-solubilized fullerene (cyclodextrin clathrate C60) was examined comparatively with a known articular function-improving agent (the hyaluronic acid formulation Suvenyl (registered trademark)). Specifically, the effects at the eighth week after the start of treatment on rabbits in the following five groups (A) to (E) were examined. Each group consisted of four rabbits and the administration dosage was 2.0 ml/rabbit in all groups.
Test groups: (A) Sham-operation, group administered with Suvenyl; (B) Sham-operation, group administered with 50% polyethylene glycol; (C) Osteoarthritis model, group administered with 1.0 μM water-solubilized fullerene; (D) Osteoarthritis model, group administered with 50% Suvenyl; (E) Osteoarthritis model, group administered with 1.0 μM water-solubilized fullerene and Suvenyl.

[5] = 1 μM in 50% polyethylene glycol
[6] = 1 μM in hyaluronic acid formulation
[7] = 1 μM in osteoarthritis patient-derived synovial fluid

Hepatic function, renal function, electrolyte balance ([3]; pre-administration, fourth and eighth week post-administration) | Compound | Friction coefficient decreasing rate to control solution [1, 5] | Dynamic friction coefficient [1, 5] | Friction coefficient decreasing rate to control solution [1, 6] | Dynamic friction coefficient [1, 6] | Friction coefficient decreasing rate to control solution [1, 7] | Dynamic friction coefficient [1, 7] | Cartilage degeneration inhibitory effect across doses ([2]; 0.1 μM to 40 μM, four-week administration) | Efficacy on cartilage degeneration (rabbits responding) ([2]; 0.1 μM) | Efficacy on cartilage degeneration (rabbits responding) ([2]; 1.0 μM) | Efficacy on cartilage degeneration (rabbits responding) ([2]; 10.0 μM) | Efficacy on cartilage degeneration (rabbits responding) ([2]; 40.0 μM) | Inhibitory effect on articular cartilage degeneration ([2]; 0.1, 1.0, 10.0 or 40.0 μM intraarticular once a week, four-week and eight-week administration) | Inhibitory effect on cartilage degeneration after single administration ([2]; single dose immediately after model preparation, eighth week, versus control knees) | Decrease in body weight, insufficient feeding, hematuria, abnormal hair coat ([3]; eight-week test period) | Optical microscopic observation of organs other than the joints (brain, lung, liver, kidney, adrenal, testis) ([3]; eight-week test period) | MMP-3 concentration in synovial fluid (MMP-3) | Proteoglycan concentration in synovial fluid (proteoglycan) | Inhibitory effect on the production of cartilage matrix-degrading enzymes (MMPs) [4] | Producing/maintaining effect of proteoglycan [4]
 | c12c3c4c5c1c1c6c7c2c2c8c3c3c9c4c4c%10c5c5c1c1c6c6c%11c7c2c2c7c8c3c3c8c9c4c4c9c%10c5c5c1c1c6c6c%11c2c2c7c3c3c8c4c4c9c5c1c1c6c2c3c41 [C60, fullerene (C60)] | 25% | 0.104 | 42% | 0.116 | 37% | 0.111 |  |  |  |  |  |  |  |  |  |  |  |  | 
not significantly changed | cyclodextrin clathrate C60 [water-solubilized fullerene] |  |  |  |  |  |  | almost equivalent | a mild efficacy in all four rabbits | a moderate efficacy in two rabbits and a remarkable efficacy in one rabbit out of a total of four | a remarkable efficacy in three rabbits out of a total of four | a mild efficacy in one rabbit and moderate efficacy in another rabbit out of a total of three | confirmed at the respective concentrations | no clear inhibitory effect on cartilage degeneration was observed | not observed | no findings showing degeneration in the respective tissues | not clear | not clear | more remarkable effects than the hyaluronic acid formulation | more remarkable effects than the hyaluronic acid formulation
